Consider 19 molecules from patent publication US11130769B2 (Prelude Therapeutics Incorporated, priority 2018, dated 2021).

The conditions of data set [1]: rcm bond, DCE.
The target in another data set is MCL-1 (Homo sapiens (Human), UniProt Q07820). Nature of the data set: Cell free Mcl-1:Bim affinity assay (fluorescence polarization competition). The following applies: 15 nM MCL-1, 5 nM FITC-Bim, 1 hour at room temperature, read-out: BIM_Ki. The data set is classed as binding. An outline of the steps: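 Fluorescence polarization competition: 10-point 3-fold compound dilutions displaced 5 nM FITC-Bim from 15 nM MCL-1 over 1 h at room temperature. Ki was derived from the fitted IC50 using the Nikolovska-Coleska equation, with percent inhibition normalized to DMSO and positive controls.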
MCL-1, sequence (Q07820 whole entry): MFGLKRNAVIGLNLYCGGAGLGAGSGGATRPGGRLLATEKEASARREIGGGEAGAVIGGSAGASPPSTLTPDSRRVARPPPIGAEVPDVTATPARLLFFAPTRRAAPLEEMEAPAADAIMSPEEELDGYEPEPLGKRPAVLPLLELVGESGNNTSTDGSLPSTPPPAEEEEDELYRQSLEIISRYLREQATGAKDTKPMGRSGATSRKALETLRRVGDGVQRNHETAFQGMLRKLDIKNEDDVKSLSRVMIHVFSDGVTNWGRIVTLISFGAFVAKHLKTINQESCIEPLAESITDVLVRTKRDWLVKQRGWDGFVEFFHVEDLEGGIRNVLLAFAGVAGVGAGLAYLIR

A further data set concerns H929 cells. Nature of the data set: Cell viability assay (H929 10 FBS). The data set is classed as cell-based. The following applies: Homo sapiens, NCI-H929, 24 hours, read-out: H929_10FBS IC50. The gist of the method: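 ATP-based luminescence (CellTiter-Glo or ATPlite 1 Step, 30-60 min at RT) gauged viability of H929 myeloma cells after 24 h compound treatment at 37 °C. Cells plated at 4000 per well in 10% FBS RPMI 1640 supplemented with pyruvate, HEPES and glucose.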

The mark [2] stands for this setting: from C=CC(C)OC(C)(C)C(=O)NS(=O)(=O)c1ccc2c(c1)N(C[C@@H]1CC[C@H]1[C@@H](O)C=C)C[C@@]1(CCCc3cc(Cl)ccc31)CO2, 16-membered ring, Zhan catalyst, 2.1 mM, 45.0 °C, 2.0 h.
Setting [3] is: from C=CCN(C(=O)OC(C)(C)C)[C@H](C)C(=O)NS(=O)(=O)c1ccc2c(c1)N(C[C@@H]1CC[C@H]1[C@@H](O)C=C)C[C@@]1(CCCc3cc(Cl)ccc31)CO2, 16-membered ring, Zhan Catalyst 1B, 1.8 mM, 40.0 °C, 3.0 h.

Where two headings read alike, the source gives them in different places.

The molecule `CC(C)(C)OC(=O)N1CC=C[C@H](O)[C@@H]2CC[C@H]2CN2C[C@@]3(CCCc4cc(Cl)ccc43)COc3ccc(cc32)S(=O)(=O)NC(=O)C12CCC2` came in with a ring closure, isolated yield in data set [1] (from C=CCN(C(=O)OC(C)(C)C)C1(C(=O)NS(=O)(=O)c2ccc3c(c2)N(C[C@@H]2CC[C@H]2[C@@H](O)C=C)C[C@@]2(CCCc4cc(Cl)ccc42)CO3)CCC1, 16-membered ring, Zhan Catalyst II (resin supported), 1.0 mM, 60.0 °C, 3.0 h) of 93%.

The molecule `CC1/C=C/[C@H](O)[C@@H]2CC[C@H]2CN2C[C@@]3(CCCc4cc(Cl)ccc43)COc3ccc(cc32)S(=O)(=O)NC(=O)C(C)(C)O1` (stereo partly shown) displayed a ring closure, isolated yield in data set [1] (setting [2]) of 62.4%.

As for `C[C@@H]1C(=O)NS(=O)(=O)c2ccc3c(c2)N(C[C@@H]2CC[C@H]2[C@@H](O)C=CCN1C(=O)OC(C)(C)C)C[C@@]1(CCCc2cc(Cl)ccc21)CO3`, in data set [1] (setting [3]), the ring closure, isolated yield amounted to 36%.

Molecule `O=C1NS(=O)(=O)c2ccc3c(c2)N(C[C@@H]2CC[C@H]2[C@@H](O)C=CCOC12CCC2)C[C@@]1(CCCc2cc(Cl)ccc21)CO3` came in with a ring closure, isolated yield in data set [1] (from C=CCOC1(C(=O)NS(=O)(=O)c2ccc3c(c2)N(C[C@@H]2CC[C@H]2[C@@H](O)C=C)C[C@@]2(CCCc4cc(Cl)ccc42)CO3)CCC1, 16-membered ring, Hoveyda-Grubbs II, 1.46 mM, 40.0 °C, 2.0 h) of 66.3%.

`CC1/C=C\[C@H](O)[C@@H]2CC[C@H]2CN2C[C@@]3(CCCc4cc(Cl)ccc43)COc3ccc(cc32)S(=O)(=O)NC(=O)C(C)(C)O1` (stereo partly shown): the ring closure, isolated yield in data set [1] (setting [2]) is 15.2%.

In data set [1] (from C=CCN(CC1(C(=O)NS(=O)(=O)c2ccc3c(c2)N(C[C@@H]2CC[C@H]2[C@@H](C=C)OC)C[C@@]2(CCCc4cc(Cl)ccc42)CO3)CCC1)C(=O)OC(C)(C)C, 17-membered ring, Hoveyda-Grubbs II, 2.6 mM, 16.0 h), `CO[C@@H]1C=CCN(C(=O)OC(C)(C)C)CC2(CCC2)C(=O)NS(=O)(=O)c2ccc3c(c2)N(C[C@@H]2CC[C@H]21)C[C@@]1(CCCc2cc(Cl)ccc21)CO3` gave a ring closure, isolated yield of 80%.

Turning to `C[C@@H]1C(=O)NS(=O)(=O)c2ccc3c(c2)N(C[C@@H]2CC[C@H]2[C@@H](O)/C=C/CN1C(=O)OC(C)(C)C)C[C@@]1(CCCc2cc(Cl)ccc21)CO3`, the ring closure, isolated yield in data set [1] (setting [3]) came to 44%.

The term IC50 denotes the midpoint of a concentration-inhibition curve. For `COC[C@@H]1CCCN1C(=O)O[C@H]1/C=C/COC(C)(C)C(=O)NS(=O)(=O)c2ccc3c(c2)N(C[C@@H]2CC[C@H]21)C[C@@]1(CCCc2cc(Cl)ccc21)CO3` [Example 160, [(3R,6R,7S,8E,22S)-6′-Chloro-12,12-dimethyl-13,15,15-trioxo-spiro[11,20-dioxa-15-thia-1,14-diazatetracyclo[14.7.2.03,6.019,24]pentacosa-8,16,18,24-tetraene-22,1′-tetralin]-7-yl] (2S)-2-(methoxymethyl)pyrrolidine-1-carboxylate], the Ki at MCL-1 (class symbols) is under 1 nM. Also, the IC50 in the data set with H929 cells was under 500 nM.

Turning to `CO[C@@H]1CCN(C(=O)O[C@H]2/C=C/COC(C)(C)C(=O)NS(=O)(=O)c3ccc4c(c3)N(C[C@@H]3CC[C@H]32)C[C@@]2(CCOc3cc(Cl)ccc32)CO4)C1` [Example 266, [(3R,6R,7S,8E,22S)-7′-Chloro-12,12-dimethyl-13,155-trioxo-spiro[11,20-dioxa-15-thia-1,14-diazatetracyclo[14.7.2.03,6.019,24]pentacosa-8,16,18,24-tetraene-22,4′-chromane]-7-yl] (3R)-3-methoxypyrrolidine-1-carboxylate], the Ki on MCL-1 (class symbols) is under 1 nM. In addition, in the data set on H929 cells, the 50% inhibitory concentration (IC50) was under 500 nM.

For `CNCCN(C)C(=O)O[C@H]1/C=C/COC(C)(C)C(=O)NS(=O)(=O)c2ccc3c(c2)N(C[C@@H]2CC[C@H]21)C[C@@]1(CCCc2cc(Cl)ccc21)CO3` [Example 194, [(3R,6R,7S,8E,22S)-6′-Chloro-12,12-dimethyl-13,15,15-trioxo-spiro[11,20-dioxa-15-thia-1,14-diazatetracyclo[14.7.2.03,6.019,24]pentacosa-8,16,18,24-tetraene-22,1′-tetralin]-7-yl] N-methyl-N-[2-(methylamino)ethyl]carbamate], on MCL-1 (class symbols), the Ki is under 1 nM. The IC50 in the data set with H929 cells is under 500 nM.

As to `CO[C@@H]1/C=C/CCC(=O)NS(=O)(=O)c2ccc3c(c2)N(C[C@@H]2CC[C@H]21)C[C@@]1(CCCc2cc(Cl)ccc21)CO3` [Example 74, (3R,6R,7R,8E,21S)-6′-Chloro-7-methoxy-14,14-dioxo-spiro[19-oxa-14-thia-1,13-diazatetracyclo[13.7.2.03,6.018,23]tetracosa-8,15,17,23-tetraene-21,1′-tetralin]-12-one], the Ki on MCL-1 (class symbols) is under 1 nM. In addition, the IC50 in the data set on H929 cells was over 1000 nM.

Take `CN(C(=O)O[C@H]1/C=C/COC2(CCC2)C(=O)NS(=O)(=O)c2ccc3c(c2)N(C[C@@H]2CC[C@H]21)C[C@@]1(CCCc2cc(Cl)ccc21)CO3)C1CCOCC1` [Example 236, [(3R,6R,7S,8E,22S)-6′-Chloro-12,12-(1,3-propylene)-13,15,15-trioxo-spiro[11,20-dioxa-15-thia-1,14-diazatetracyclo[14.7.2.03,6.019,24]pentacosa-8,16,18,24-tetraene-22,1′-tetralin]-7-yl] N-methyl-N-tetrahydropyran-4-yl-carbamate]: at MCL-1 (class symbols), the Ki was under 1 nM. In addition, in the data set with H929 cells, the IC50 was under 500 nM.

For the molecule `CN(C)[C@H]1CCN(C(=O)O[C@H]2/C=C/COC(C)(C)C(=O)NS(=O)(=O)c3ccc4c(c3)N(C[C@@H]3CC[C@H]32)C[C@@]2(CCCc3cc(Cl)ccc32)CO4)C1` [Example 154, [(3R,6R,7S,8E,22S)-6′-Chloro-12,12-dimethyl-13,15,15-trioxo-spiro[11,20-dioxa-15-thia-1,14-diazatetracyclo[14.7.2.03,6.019,24]pentacosa-8,16,18,24-tetraene-22,1′-tetralin]-7-yl] (3S)-3-(dimethylamino)pyrrolidine-1-carboxylate], the Ki on MCL-1 (class symbols) is under 1 nM. Besides, in the data set on H929 cells, the IC50 was under 500 nM.

In the case of `CC(C)C(=O)NS(=O)(=O)c1ccc2c(c1)N(CC1CCC1)CC1(CCCc3cc(Cl)ccc31)CO2` (stereo not shown) [Example 6, N-[6′-Chloro-5-(cyclobutylmethyl)spiro[2,4-dihydro-1,5-benzoxazepine-3,1′-tetralin]-7-yl]sulfonyl-2-methyl-propanamide], the Ki at MCL-1 (numeric values) worked out at 35.7 nM. Also, the IC50 with H929 cells was over 1000 nM.

With `O=C1Cc2cccc(c2)OC[C@@H]2CC[C@H]2CN2C[C@@]3(CCCc4cc(Cl)ccc43)COc3ccc(cc32)S(=O)(=O)N1` [Example 18, (3R,6R,24S)-6′-Chloro-17,17-dioxo-spiro[8,22-dioxa-17λ^6-thia-1,16-diazapentacyclo[16.7.2.1^9,13.0^3,6.0^21,26]octacosa-9(28),10,12,18(27),19,21(26)-hexaene-24,1′-tetralin]-15-one], the Ki at MCL-1 (numeric values) came to 1.4 nM. Further, the IC50 in the data set with H929 cells was over 1000 nM.

In the case of `CC(=O)NS(=O)(=O)c1ccc2c(c1)N(CC1CC1)CC1(CCCc3cc(Cl)ccc31)CO2` (stereo not shown) [Example 2, N-[6′-Chloro-5-(cyclopropylmethyl)spiro[2,4-dihydro-1,5-benzoxazepine-3,1′-tetralin]-7-yl]sulfonylacetamide], the Ki on MCL-1 (numeric values) stood at 179 nM. Besides, the IC50 with H929 cells is over 1000 nM.

Regarding `CC1(C)OC/C=C/[C@H](OCC(=O)NC2CCOCC2)[C@@H]2CC[C@H]2CN2C[C@@]3(CCCc4cc(Cl)ccc43)COc3ccc(cc32)S(=O)(=O)NC1=O` [Example 282, 2-[(3R,6R,7S,8E,22S)-6′-Chloro-12,12-dimethyl-13,15,15-trioxo-spiro[11,20-dioxa-15λ6-thia-1,14-diazatetracyclo[14.7.2.03,6.019,24]pentacosa-8,16,18,24-tetraene-22,1′-tetralin]-7-yl]oxy-N-tetrahydropyran-4-yl-acetamide], on MCL-1 (class symbols), the Ki is under 1 nM. Further, the IC50 in the data set on H929 cells was under 500 nM.

With `CC1(C)OC/C=C/[C@H](OCCN2CC[C@@H](F)C2)[C@@H]2CC[C@H]2CN2C[C@@]3(CCCc4cc(Cl)ccc43)COc3ccc(cc32)S(=O)(=O)NC1=O` [Example 264, (3R,6R,7S,8E,22S)-6′-Chloro-7-[2-[(3R)-3-fluoropyrrolidin-1-yl]ethoxy]-12,12-dimethyl-15,15-dioxo-spiro[11,20-dioxa-15-thia-1,14-diazatetracyclo[14.7.2.03,6.019,24]pentacosa-8,16,18,24-tetraene-22,1′-tetralin]-13-one], the Ki at MCL-1 (class symbols) is under 1 nM. In addition, in the data set on H929 cells, the IC50 was under 500 nM.

Take `CN1C/C=C/[C@H](OC(=O)N2CCOCC2)[C@@H]2CC[C@H]2CN2C[C@@]3(CCCc4cc(Cl)ccc43)COc3ccc(cc32)S(=O)(=O)NC(=O)C1(C)C` [Example 199, [(3R,6R,7S,8E,22S)-6′-Chloro-11,12,12-trimethyl-13,15,15-trioxo-spiro[20-oxa-15-thia-1,11,14-triazatetracyclo[14.7.2.03,6.019,24]pentacosa-8,16,18,24-tetraene-22,1′-tetralin]-7-yl]morpholine-4-carboxylate]: the Ki at MCL-1 (class symbols) is under 1 nM. Moreover, in the data set on H929 cells, the IC50 is under 500 nM.
